Laboratory results: patent publication US9034921B2, “Diphenylmethane derivatives as SGLT2 inhibitors” (GREEN CROSS CORPORATION, priority 2011, dated 2015)

Each compound was assayed against human SGLT2 (Homo sapiens (Human), UniProt P31639) (assay: Inhibitory effects on human SGLT2 activities (14C-AMG uptake, sodium-dependent glucose transport assay)). Settings: CHO cells stably expressing hSGLT2, 37° C., 2 h, single determinations.
Type: cell-based
From the text: Test 1: Cloning and Cell Line Construction for Human SGLT2
Human SGLT2 (hSGLT2) gene was amplified by PCR from cDNA-Human Adult Normal Tissue Kidney (Invitrogen). The hSGLT2 sequence was cloned into pcDNA3.1(+) for mammalian expression and stably transfected into chinese hamster ovary (CHO) cells. SGLT2-expressing clones were selected based on resistance to G418 antibiotic (Geneticin) and activity in the ^14C-α-methyl-D-glucopyranoside (^14C-AMG) uptake assay.
Test 2: Inhibitory Effects on Human SGLT2 Activities
For sodium-dependent glucose transport assay, cells expressing hSGLT2 were seeded into a 96-well culture plate at a density of 5×10^4 cells/well in RPMI medium 1640 containing 10% fetal bovine serum. The cells were used 1 day after plating. They were incubated in pretreatment buffer (10 mM HEPES, 5 mM Tris, 140 mM choline chloride, 2 mM KCl, 1 mM CaCl2, and 1 mM MgCl2, pH 7.4) at 37° C. for 10 min. They were then incubated in uptake buffer (10 mM HEPES, 5 mM Tris, 140 mM NaCl, 2 mM KCl, 1 mM CaCl2, 1 mM MgCl2, and 1 mM ^14C-nonlabeled AMG pH 7.4) containing ^14C-labeled AMG (8 μM) and the inventive compound or dimethyl sulfoxide (DMSO) vehicle at 37° C. for 2 h. Cells were washed twice with washing buffer (pretreatment buffer containing 10 mM AMG at room temperature) and then the radioactivity was measured using a liquid scintillation counter. IC50 was determined by nonlinear regression analysis using GraphPad PRISM [Katsuno, K. et al. J. Pharmacol. Exp. Ther. 2007, 320, 323-330; Han, S. et al. Diabetes, 2008, 57, 1723-1729].

Chain of human SGLT2 (P31639 whole entry): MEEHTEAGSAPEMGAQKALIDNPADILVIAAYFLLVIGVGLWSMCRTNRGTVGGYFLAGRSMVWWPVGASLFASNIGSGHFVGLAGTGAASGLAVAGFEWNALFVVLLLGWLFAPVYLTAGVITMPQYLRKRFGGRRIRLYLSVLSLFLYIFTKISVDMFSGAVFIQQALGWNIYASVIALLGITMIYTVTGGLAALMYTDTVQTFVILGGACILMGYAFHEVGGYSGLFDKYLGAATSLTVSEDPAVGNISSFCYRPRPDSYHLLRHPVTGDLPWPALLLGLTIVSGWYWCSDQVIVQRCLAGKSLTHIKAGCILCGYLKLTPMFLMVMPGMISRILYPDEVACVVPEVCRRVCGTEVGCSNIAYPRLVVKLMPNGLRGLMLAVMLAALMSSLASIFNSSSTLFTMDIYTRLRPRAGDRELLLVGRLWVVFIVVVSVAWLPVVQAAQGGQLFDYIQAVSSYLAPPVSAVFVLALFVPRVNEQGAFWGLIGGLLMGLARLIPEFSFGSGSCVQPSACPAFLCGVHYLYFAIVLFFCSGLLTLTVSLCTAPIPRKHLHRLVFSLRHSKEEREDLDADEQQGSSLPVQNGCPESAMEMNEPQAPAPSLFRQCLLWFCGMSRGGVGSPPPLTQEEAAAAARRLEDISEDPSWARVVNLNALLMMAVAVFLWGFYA

SMILES	IC50 [nM]
OC[C@H]1O[C@@H](c2ccc(Cl)c(Cc3ccc4c(cnn4Cc4ccccc4)c3)c2)[C@H](O)[C@@H](O)[C@@H]1O [Example E033, (2S,3R,4R,5S,6R)-2-(3-((1-Benzyl-1H-indazol-5-yl)methyl)-4-chlorophenyl)-6-(hydroxymethyl)tetrahydro-2H-pyran-3,4,5-triol]	2.39
Cn1ccc2cc(Cc3cc([C@@H]4O[C@H](CO)[C@@H](O)[C@H](O)[C@H]4O)ccc3Cl)ccc21 [Example E034, (2S,3R,4R,5S,6R)-2-(4-Chloro-3-((1-methyl-1H-indol-5-yl)methyl)phenyl)-6-(hydroxymethyl)tetrahydro-2H-pyran-3,4,5-triol]	2.98
Cn1ncc2cc(Cc3cc([C@@H]4O[C@H](CO)[C@@H](O)[C@H](O)[C@H]4O)ccc3Cl)ccc21 [Example E035, (2S,3R,4R,5S,6R)-2-(4-Chloro-3-((1-methyl-1H-indazol-5-yl)methyl)phenyl)-6-(hydroxymethyl)tetrahydro-2H-pyran-3,4,5-triol]	1.72
Cn1cc2cc(Cc3cc([C@@H]4O[C@H](CO)[C@@H](O)[C@H](O)[C@H]4O)ccc3Cl)ccc2n1 [Example E036, (2S,3R,4R,5S,6R)-2-(4-Chloro-3-((2-methyl-2H-indazol-5-yl)methyl)phenyl)-6-(hydroxymethyl)tetrahydro-2H-pyran-3,4,5-triol]	2.31
CCn1cc2cc(Cc3cc([C@@H]4O[C@H](CO)[C@@H](O)[C@H](O)[C@H]4O)ccc3Cl)ccc2n1 [Example E038, (2S,3R,4R,5S,6R)-2-(4-Chloro-3-((2-ethyl-2H-indazol-5-yl)methyl)phenyl)-6-(hydroxymethyl)tetrahydro-2H-pyran-3,4,5-triol]	1.76
CC(C)n1ncc2cc(Cc3cc([C@@H]4O[C@H](CO)[C@@H](O)[C@H](O)[C@H]4O)ccc3Cl)ccc21 [Example E039, (2S,3R,4R,5S,6R)-2-(4-Chloro-3-((1-isopropyl-1H-indazol-5-yl)methyl)phenyl)-6-(hydroxymethyl)tetrahydro-2H-pyran-3,4,5-triol]	1.76
CC(C)n1cc2cc(Cc3cc([C@@H]4O[C@H](CO)[C@@H](O)[C@H](O)[C@H]4O)ccc3Cl)ccc2n1 [Example E040, (2S,3R,4R,5S,6R)-2-(4-Chloro-3-((2-isopropyl-2H-indazol-5-yl)methyl)phenyl)-6-(hydroxymethyl)tetrahydro-2H-pyran-3,4,5-triol]	4.44
COc1cc([C@@H]2O[C@H](CO)[C@@H](O)[C@H](O)[C@H]2O)cc(Cc2ccc3c(c2)OCCO3)c1Cl [Example E043, (2S,3R,4R,5S,6R)-2-(4-Chloro-3-((2,3-dihydrobenzo[b][1,4]dioxin-6-yl)methyl)-5-methoxyphenyl)-6-(hydroxymethyl)tetrahydro-2H-pyran-3,4,5-triol]	2.68

These reach a lower IC50. Values come first.

IC50 [nM]	SMILES
1.58	CCn1ncc2cc(Cc3cc([C@@H]4O[C@H](CO)[C@@H](O)[C@H](O)[C@H]4O)ccc3Cl)ccc21 [Example E037, (2S,3R,4R,5S,6R)-2-(4-Chloro-3-((1-ethyl-1H-indazol-5-yl)methyl)phenyl)-6-(hydroxymethyl)tetrahydro-2H-pyran-3,4,5-triol]
1.65	OC[C@H]1O[C@@H](c2cc(Cc3ccc4c(c3)OCCO4)c(Cl)c3c2OCCC3)[C@H](O)[C@@H](O)[C@@H]1O [Example E044, (2S,3R,4R,5S,6R)-2-(5-Chloro-6-((2,3-dihydrobenzo[b][1,4]dioxin-6-yl)methyl)chroman-8-yl)-6-(hydroxymethyl)tetrahydro-2H-pyran-3,4,5-triol]
1.37	OC[C@H]1O[C@@H](c2cc(Cc3ccc4c(c3)OCCO4)c(Cl)c3c2CCO3)[C@H](O)[C@@H](O)[C@@H]1O [Example E045, (2S,3R,4R,5S,6R)-2-(7-Chloro-6-((2,3-dihydrobenzo[b][1,4]dioxin-6-yl)methyl)-2,3-dihydrobenzofuran-4-yl)-6-(hydroxymethyl)tetrahydro-2H-pyran-3,4,5-triol]
